This is an account of results in patent US20140155376A1, “PYRROLOPYRAZINE KINASE INHIBITORS” (Hoffmann-La Roche Inc., priority 2010, published 2014).

By IC50 is commonly meant the concentration needed to halve the response being measured.

The target of this test is T1, JAK3 (recombinant human kinase domain; h-jak3(810-1124)) (Homo sapiens, UniProt P52333).
T1 construct: h-jak3(810- 1124)-sf9-c; made in house; host or cells: Sf9 insect cells
T1 sequence (P52333 810-1124): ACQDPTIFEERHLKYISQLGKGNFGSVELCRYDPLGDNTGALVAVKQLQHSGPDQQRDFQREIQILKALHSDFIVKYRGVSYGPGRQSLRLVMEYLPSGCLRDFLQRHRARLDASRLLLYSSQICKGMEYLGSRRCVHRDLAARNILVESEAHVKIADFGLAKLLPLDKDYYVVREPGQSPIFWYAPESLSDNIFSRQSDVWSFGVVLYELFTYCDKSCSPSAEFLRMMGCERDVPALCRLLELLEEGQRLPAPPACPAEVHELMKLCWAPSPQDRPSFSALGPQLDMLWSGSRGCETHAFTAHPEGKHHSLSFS
Put plainly: Determination of IC50 of Janus Kinase (JAK) inhibition: JAK3, radioactive end-point assay with 33P-ATP. Conditions: JAK3 kinase domain; ATP 1.5 uM, peptide 50 uM, 20 minutes, room temperature, 10% DMSO; read-out: Ic50 h-jak3(810-1124)-sf9-c:no additive. Format: biochemical.
For `CCNC(=O)c1c[nH]c2ncc(Oc3cccc(C(C)C)c3)nc12` [Example I-250, 2-(3-Isopropyl-phenoxy)-5H-pyrrolo[2,3-b]pyrazine-7-carboxylic acid ethylamide], the IC50 is 4590 nM.

Take `CC(C)NC(=O)c1c[nH]c2ncc(Oc3ccc4c(c3)[C@H](NC(=O)C3CCOCC3)CC4)nc12` [Example I-283, 2-{(R)-3-[(Tetrahydro-pyran-4-carbonyl)-amino]-indan-5-yloxy}-5H-pyrrolo[2,3-b]pyrazine-7-carboxylic acid isopropylamide]: the IC50 turned out to be 56.7 nM.

As for `CC(C)c1cnc2[nH]cc(C(=O)N[C@@H](C)C(C)(C)O)c2n1` [Example I-5, 2-Isopropyl-5H-pyrrolo[2,3-b]pyrazine-7-carboxylic acid ((S)-2-hydroxy-1,2-dimethyl-propyl)-amide], the 50% inhibitory concentration (IC50) stood at 302 nM.

With `CCNC(=O)c1c[nH]c2ncc(Oc3ccccc3C)nc12` [Example I-257, 2-o-Tolyloxy-5H-pyrrolo[2,3-b]pyrazine-7-carboxylic acid ethylamide], the IC50 amounted to 2740 nM.

For the molecule `CC(C)[C@H](CO)NC(=O)c1c[nH]c2ncc(C3CC3)nc12` [Example I-56, 2-Cyclopropyl-5H-pyrrolo[2,3-b]pyrazine-7-carboxylic acid ((R)-1-hydroxymethyl-2-methyl-propyl)-amide], the IC50 was 9.84 nM.

For `CC(C)(O)[C@H](NC(=O)c1c[nH]c2ncc(C3CC3)nc12)C1CC1` [Example I-74, 2-Cyclopropyl-5H-pyrrolo[2,3-b]pyrazine-7-carboxylic acid ((R)-1-cyclopropyl-2-hydroxy-2-methyl-propyl)-amide], the IC50 amounted to 27.1 nM.

`CC(C)NC(=O)c1c[nH]c2ncc(Oc3ccccc3C(F)(F)F)nc12` [Example I-236, 2-(2-Trifluoromethyl-phenoxy)-5H-pyrrolo[2,3-b]pyrazine-7-carboxylic acid isopropylamide]: the IC50 was determined as 2960 nM.

For `C[C@H](NC(=O)c1c[nH]c2ncc(-c3ccc(C(=O)NCC(C)(C)C)s3)nc12)C(C)(C)C` [Example I-210, 2-[5-(2,2-Dimethyl-propylcarbamoyl)-thiophen-2-yl]-5H-pyrrolo[2,3-b]pyrazine-7-carboxylic acid ((S)-1,2,2-trimethyl-propyl)-amide], the half-maximal inhibitory concentration (IC50) came to 0.71 nM.

In the case of `CC(=O)N1CCCC(CNC(=O)c2c[nH]c3ncc(C4CC4)nc23)C1` (stereo not shown) [Example I-136, 2-Cyclopropyl-5H-pyrrolo[2,3-b]pyrazine-7-carboxylic acid (1-acetyl-piperidin-3-ylmethyl)-amide], the IC50 worked out at 283 nM.

As for `C[C@@H](NC(=O)c1c[nH]c2ncc(-c3cnn(C)c3)nc12)C(C)(C)O` [Example I-102, 2-(1-Methyl-1H-pyrazol-4-yl)-5H-pyrrolo[2,3-b]pyrazine-7-carboxylic acid ((R)-2-hydroxy-1,2-dimethyl-propyl)-amide], the IC50 was determined as 10.3 nM.

As to `CC(O)CCNC(=O)c1c[nH]c2ncc(C3CC3)nc12` (stereo not shown) [Example I-68, 2-Cyclopropyl-5H-pyrrolo[2,3-b]pyrazine-7-carboxylic acid (3-hydroxy-butyl)-amide], the IC50 is 358 nM.

As for `C[C@H](NC(=O)c1c[nH]c2ncc(-c3ccc(C(=O)Nc4ccccc4)s3)nc12)C(C)(C)C` [Example I-201, 2-(5-Phenylcarbamoyl-thiophen-2-yl)-5H-pyrrolo[2,3-b]pyrazine-7-carboxylic acid ((S)-1,2,2-trimethyl-propyl)-amide], the IC50 worked out at 0.57 nM.

As to `CC(C)NC(=O)c1c[nH]c2ncc(Oc3cccc(C(F)(F)F)c3)nc12` [Example I-235, 2-(3-Trifluoromethyl-phenoxy)-5H-pyrrolo[2,3-b]pyrazine-7-carboxylic acid isopropylamide], the IC50 worked out at 784 nM.

For `CCC[C@@](C)(O)[C@@H](C)NC(=O)c1c[nH]c2ncc(C3CC3)nc12` [Example I-84, 2-Cyclopropyl-5H-pyrrolo[2,3-b]pyrazine-7-carboxylic acid ((1R,2R)-2-hydroxy-1,2-dimethyl-pentyl)-amide], the half-maximal inhibitory concentration (IC50) turned out to be 65.1 nM.

For the molecule `CC[C@H](C)NC(=O)c1c[nH]c2ncc(Oc3ccccc3)nc12` [Example I-121, 2-Phenoxy-5H-pyrrolo[2,3-b]pyrazine-7-carboxylic acid ((S)-sec-butyl)-amide], the half-inhibitory concentration (IC50) stood at 59.5 nM.

Take `C[C@H](NC(=O)c1c[nH]c2ncc(-c3cccs3)nc12)C(C)(C)O` [Example I-18, 2-Thiophen-2-yl-5H-pyrrolo[2,3-b]pyrazine-7-carboxylic acid ((S)-2-hydroxy-1,2-dimethyl-propyl)-amide]: the IC50 amounted to 3.05 nM.

Regarding `O=C(NC(C1CCCCC1)C1CC1)c1c[nH]c2ncc(C3CC3)nc12` (stereo not shown) [Example I-78, 2-Cyclopropyl-5H-pyrrolo[2,3-b]pyrazine-7-carboxylic acid (cyclohexyl-cyclopropyl-methyl)-amide], the IC50 amounted to 78.6 nM.

For the molecule `C[C@H](CO)NC(=O)c1c[nH]c2ncc(C3CC3)nc12` [Example I-41, 2-Cyclopropyl-5H-pyrrolo[2,3-b]pyrazine-7-carboxylic acid ((R)-2-hydroxy-1-methyl-ethyl)-amide], the IC50 was 112 nM.

For the molecule `CC(C)NC(=O)c1c[nH]c2ncc(Oc3ccc4ccn(C)c4c3)nc12` [Example I-276, 2-(1-Methyl-1H-indol-6-yloxy)-5H-pyrrolo[2,3-b]pyrazine-7-carboxylic acid isopropylamide], the concentration for half-maximal inhibition (IC50) was 574 nM.

Turning to `CCc1cnc2[nH]cc(C(=O)NCC(C)(C)CO)c2n1` [Example I-39, 2-Ethyl-5H-pyrrolo[2,3-b]pyrazine-7-carboxylic acid (3-hydroxy-2,2-dimethyl-propyl)-amide], the 50% inhibitory concentration (IC50) was determined as 302 nM.

With `COCC(C)NC(=O)c1ccc(-c2cnc3[nH]cc(C(=O)N[C@@H](C)C(C)(C)C)c3n2)s1` (stereo partly drawn) [Example I-214, 2-[5-(2-Methoxy-1-methyl-ethylcarbamoyl)-thiophen-2-yl]-5H-pyrrolo[2,3-b]pyrazine-7-carboxylic acid ((S)-1,2,2-trimethyl-propyl)-amide], the IC50 was 0.28 nM.

As to `C[C@H](CS(C)(=O)=O)NC(=O)c1ccc(-c2cnc3[nH]cc(C(=O)N[C@@H](C)C(C)(C)C)c3n2)s1` [Example I-211, 2-[5-((R)-2-Methanesulfonyl-1-methyl-ethylcarbamoyl)-thiophen-2-yl]-5H-pyrrolo[2,3-b]pyrazine-7-carboxylic acid ((S)-1,2,2-trimethyl-propyl)-amide], the IC50 is 0.22 nM.

For `Cc1ccc(F)c(-n2cnc(-c3cnc4[nH]cc(C(=O)N[C@@H](C)C(C)(C)C)c4n3)c2)c1` [Example I-148, 2-[1-(2-Fluoro-5-methyl-phenyl)-1H-imidazol-4-yl]-5H-pyrrolo[2,3-b]pyrazine-7-carboxylic acid ((S)-1,2,2-trimethyl-propyl)-amide], the half-maximal inhibitory concentration (IC50) turned out to be 3.25 nM.

In the case of `C[C@H](NC(=O)c1c[nH]c2ncc(-c3ccc(C(=O)NCC#N)s3)nc12)C(C)(C)C` [Example I-172, 2-[5-(Cyanomethyl-carbamoyl)-thiophen-2-yl]-5H-pyrrolo[2,3-b]pyrazine-7-carboxylic acid ((S)-1,2,2-trimethyl-propyl)-amide], the concentration for half-maximal inhibition (IC50) was 0.14 nM.

For the molecule `C[C@H](NC(=O)c1c[nH]c2ncc(-c3ccc(C(=O)NC45CC6CC(CC(C6)C4)C5)s3)nc12)C(C)(C)C` [Example I-194, 2-[5-(Adamantan-1-ylcarbamoyl)-thiophen-2-yl]-5H-pyrrolo[2,3-b]pyrazine-7-carboxylic acid ((S)-1,2,2-trimethyl-propyl)-amide], the IC50 amounted to 1.34 nM.
